Reference: ChEMBL document CHEMBL4706510, “Structure-based design, semi-synthesis and anti-inflammatory activity of tocotrienolic amides as 5-lipoxygenase inhibitors” (Eur J Med Chem, 2020)
Active and inactive are the calls of the source. The calls are words filed in the database; no cut-off is given here.

System: PMNL
Assay: Induction of 15-HETE formation in human PMNL cells by RP-HPLC analysis
Format: functional, cell-based

Structure (SMILES)	Activity
C/C(=C\CC/C(C)=C/CC[C@]1(C)CCc2c(C)c(O)c(C)c(C)c2O1)CC/C=C(\C)C(=O)NCc1cccnc1	Active
C/C(=C\CC/C(C)=C/CC[C@]1(C)CCc2c(C)c(O)cc(C)c2O1)CC/C=C(\C)C(=O)NCC1CCCCC1	Active
C/C(=C\CC/C(C)=C/CC[C@]1(C)CCc2c(C)c(O)c(C)c(C)c2O1)CC/C=C(\C)C(=O)NCC1CCCCC1	Active
COc1ccc(CNC(=O)/C(C)=C/CC/C(C)=C/CC/C(C)=C/CC[C@]2(C)CCc3c(C)c(O)c(C)c(C)c3O2)cc1	Active
